The values that follow come from DBAASP.

Some test systems named below: Escherichia coli K91BK; Botrytis cinerea; Cladosporium herbarum; Alternaria alternata; Fusarium oxysporum LD21.
Holding throughout (assay): ≥ marks a high value that may be exact or a test limit, other limits are often not marked, values filed in µg/mL are converted to µM
Experiment [1] concerns Bacillus anthracis Sterne 34F2.
Experiment [2] relates to Bacillus subtilis var. niger ATCC 9372.
For experiment [3], the system named is Pectobacterium carotovorum subsp. carotovorum DSM 30168.
Experiment [4] deals with Pseudomonas syringae pv. syringae DSM 10604.
In experiment [5] the test system is Clavibacter michiganensis subsp. michiganensis DSM 46294.
Experiment [6] concerns Xanthomonas vesicatoria DSM 50861.
In experiment [7] the test system is Pseudomonas syringae pv. tomato DC3000.
Experiment [8] deals with Pseudomonas corrugata DSM 7228.
The subject of experiment [9] is Staphylococcus aureus 90857.
Experiment [10] concerns Shewanella putrefaciens ATCC 49138.
The test system of experiment [11] is Klebsiella pneumoniae ATCC 700603.
In experiment [12] the test system is Salmonella enterica subsp. enterica serovar Enteritidis ATCC 13076.
For experiment [13], the system named is Klebsiella pneumoniae LMG 20218.
For experiment [14], the system named is Streptococcus pneumoniae ATCC 33400.
The test system of experiment [15] is Pseudomonas aeruginosa ATCC 27853.
The subject of experiment [16] is Staphylococcus aureus ATCC 25923.
Experiment [17] concerns Escherichia coli CGSC 5167.
The subject of experiment [18] is Staphylococcus epidermidis ATCC 29887.
The subject of experiment [19] is Escherichia coli LMG 15862.
The test system of experiment [20] is Escherichia coli ATCC 25922.
Experiment [21] relates to Candida albicans ATCC 10231.
The test system of experiment [22] is Staphylococcus aureus ATCC 33591.
The test system of experiment [23] is Streptococcus agalactiae ATCC 13813.
Experiment [24] deals with Enterococcus faecium ATCC 35667.
Experiment [25] relates to Klebsiella aerogenes LMG 02094.
Experiment [26] concerns Klebsiella pneumoniae ATCC 13883.
Experiment [27] has as its system Enterococcus faecalis JH-2-2.
For experiment [28], the system named is Enterococcus faecium ATCC 51559.
Experiment [29] deals with Listeria monocytogenes ATCC 19115.
The test system of experiment [30] is Pseudomonas aeruginosa ATCC 10145.
For experiment [31], the system named is Acinetobacter baumannii LMG 01041.
The test system of experiment [32] is Streptococcus pneumoniae ATCC 700677.
The subject of experiment [33] is Campylobacter jejuni ATCC 33291.
Experiment [34] relates to Staphylococcus aureus ATCC 29213.
For experiment [35], the system named is Candida albicans ATCC 64550.
The test system of experiment [36] is Pseudomonas aeruginosa LMG 6395.

Each structure is given as a SMILES string. In brackets after ≈: the same amount, converted by molar mass. Bounds are passed on as bounds.

As for `CC[C@H](C)[C@H](NC(C)=O)C(=O)N[C@@H](CC(C)C)C(=O)N[C@@H](CCCN=C(N)N)C(=O)N[C@@H](Cc1c[nH]c2ccccc12)C(=O)N1CCC[C@H]1C(=O)N[C@@H](Cc1c[nH]c2ccccc12)C(=O)N[C@@H](Cc1c[nH]c2ccccc12)C(=O)N1CCC[C@H]1C(=O)N[C@@H](Cc1c[nH]c2ccccc12)C(=O)N[C@@H](CCCN=C(N)N)C(=O)N[C@@H](CCCN=C(N)N)C(=O)N[C@@H](CCCCN)C(N)=O` [ILRWPWWPWRRK], the MIC against Escherichia coli K91BK is at least 100 µM; in experiment [1] it was 25 µM (≈ 45.5 µg/mL); in experiment [2] it was 3.13 µM (≈ 5.7 µg/mL).
Consider `CC[C@H](C)[C@H](NC(=O)[C@H](Cc1ccccc1)NC(=O)[C@H](CCCN=C(N)N)NC(=O)[C@H](CCCCN)NC(=O)[C@H](CC(C)C)NC(=O)[C@H](Cc1ccccc1)NC(=O)[C@H](CCCCN)NC(=O)[C@@H](NC(=O)[C@H](CC(C)C)NC(=O)[C@@H](N)CC(C)C)[C@@H](C)CC)C(=O)N[C@@H](CCCCN)C(=O)N[C@@H](Cc1cnc[nH]1)C(N)=O` [LLIKFLKRFIKH], for which the MIC in experiment [3] is 25.7 µM (≈ 40 µg/mL); in [4] it was 6.43 µM (≈ 9.99 µg/mL); in the experiment with Botrytis cinerea, at least 64.3 µM; in experiment [5], 3.21 µM (≈ 5 µg/mL); against Cladosporium herbarum, 12.9 µM (≈ 20 µg/mL); in experiment [6], 3.21 µM (≈ 5 µg/mL). Further, the values for the MIC (against Alternaria alternata; in experiment [7]; in [8]) were at least 64.3 µM, 3.21 µM (≈ 5 µg/mL) and 6.43 µM (≈ 9.99 µg/mL), respectively.
`CC[C@H](C)[C@H](NC(=O)[C@H](CCCCN)NC(=O)[C@H](CCCCN)NC(=O)[C@H](CC(C)C)NC(=O)[C@H](Cc1ccccc1)NC(=O)[C@H](CCCN=C(N)N)NC(=O)[C@@H](N)CC(C)C)C(=O)N[C@@H](CC(C)C)C(=O)N[C@@H](CCCCN)C(=O)N[C@@H](CCCCN)C(=O)N[C@@H](CC(C)C)C(=O)N[C@@H](Cc1ccccc1)C(N)=O` [LRFLKKILKKLF]: the MIC in experiment [9] turned out to be 1.5 µM (≈ 2.32 µg/mL); in experiment [3] it was 1.62 µM (≈ 2.5 µg/mL); in experiment [4], 1.62 µM (≈ 2.5 µg/mL); in experiment [5], 0.646 µM (≈ 0.999 µg/mL); in [6], 1.62 µM (≈ 2.5 µg/mL); in experiment [7], 0.646 µM (≈ 0.999 µg/mL). Besides, the MIC in experiment [8] was determined as 1.62 µM (≈ 2.5 µg/mL).
As for `CC[C@H](C)[C@H](NC(=O)[C@H](CCCN=C(N)N)NC(=O)[C@H](CCCN=C(N)N)NC(=O)[C@H](Cc1ccccc1)NC(=O)[C@H](CC(C)C)NC(=O)[C@H](CCCN=C(N)N)NC(=O)[C@@H](N)CCCN=C(N)N)C(=O)N[C@@H](CC(C)C)C(=O)N[C@@H](CCCN=C(N)N)C(=O)N[C@@H](Cc1c[nH]c2ccccc12)C(=O)N[C@@H](CC(C)C)C(N)=O` [RRLFRRILRWL], the MIC was 3.79 µM (≈ 6 µg/mL) in experiment [10]; 0.3 µM (≈ 0.475 µg/mL) in [11]; 3.79 µM (≈ 6 µg/mL) in [12]; 4 µM (≈ 6.34 µg/mL) in [13]; 0.8 µM (≈ 1.27 µg/mL) in experiment [14]; 1.5 µM (≈ 2.38 µg/mL) in experiment [15]. Also, the MIC was determined as 0.8 µM (≈ 1.27 µg/mL) in [16]; 0.2 µM (≈ 0.317 µg/mL) in [17]; 1.89 µM (≈ 3 µg/mL) in [18]; 2 µM (≈ 3.17 µg/mL) in experiment [19]; 0.5 µM (≈ 0.792 µg/mL) in experiment [20]; 7.57 µM (≈ 12 µg/mL) in [21]. Besides, the MIC in experiment [22] turned out to be 0.3 µM (≈ 0.475 µg/mL); in experiment [23] it was 1.89 µM (≈ 3 µg/mL); in experiment [24] it was 1 µM (≈ 1.58 µg/mL); in the experiment on Fusarium oxysporum LD21, 7.57 µM (≈ 12 µg/mL); in experiment [25] it was 8 µM (≈ 12.7 µg/mL); in experiment [26], 0.1 µM (≈ 0.158 µg/mL). Also, the MIC in experiment [27] was determined as 15.8 µM (≈ 25 µg/mL); in [28], 1 µM (≈ 1.58 µg/mL); in [29], 3.79 µM (≈ 6 µg/mL); in [30] it was 2.5 µM (≈ 3.96 µg/mL); in [31] it was 2 µM (≈ 3.17 µg/mL); in [32], 0.4 µM (≈ 0.634 µg/mL). For the same compound, the MIC in experiment [33] was 3.79 µM (≈ 6 µg/mL); in experiment [34] it was 3.79 µM (≈ 6 µg/mL); in experiment [35], at least 100 µM; in [36], 3 µM (≈ 4.75 µg/mL).
